Series [1] relates to K-562 (human leukemia cancer) cells. Put plainly: MTT assay, anti-proliferative effect on K-562. As to conditions: for GI50: Homo sapiens, MTT; for fold higher inhibitory effect than imatinib (K-562 GI50): versus imatinib positive control; for fold higher inhibitory effect than nilotinib (K-562 GI50): versus nilotinib. Format: cell-based. As for the experimental part: The cell line used for an MTT assay was K-562 (human leukemia cancer), and was obtained from the Korea Cell Line Bank and then cultured. The medium herein used was RPMI 1640 medium containing 10% fetal bovine serum, and the culture was conducted in a constant-temperature constant-humidity incubator (37° C., 5% CO2). The cells were seeded at a density of 3×10^3 cells/well in a 96-well microplate and cultured in a CO2 incubator for 24 hours, the medium was removed, and further culture was performed for 72 hours in 100 μl of respective inhibitor solutions diluted to different concentrations. 15 μl of an MTT solution (Promega, CellTiter 96) was added thereto and cultured for 4 hours. Then, blue formazan, formed by adding 100 μl of a stop solution (Promega, CellTiter 96), was dissolved.
After the culture solution was allowed to stand for 18 hours or more, absorbance was measured at 570 nm to obtain IC50 (a concentration at which 50% of cancer cells are inhibited).

A further series concerns the target DDR1 (Homo sapiens, UniProt Q08345). Put plainly: Hot Spot kinase assay, DDR1. Format: biochemical. As to conditions: for IC50: ATP 10 μM, 25° C., 120 minutes. The method, then: The kinase inhibitory effect of the compounds of Compound Nos. 1 to 16 was measured. Kinase analysis was conducted in a “Hot Spot” analysis platform manner. Specific kinase/substrate pairs and cofactors were prepared in a reaction buffer (20 mM HEPES (pH 7.5), 10 mM MgCl2, 1 mM EGTA, 0.02% Brij35, 0.02 mg/ml BSA, 0.1 mM Na3VO4, 2 mM DTT and 1% DMSO). 10 concentrations of compounds that were serially diluted 3 times in sequence from a concentration of 20 μM were added to the reaction mixture, and a mixture of ATP (10 μM, Sigma) and 33P ATP (Perkin Elmer) was added thereto after 20 minutes. The reaction was conducted at 25° C. for 120 minutes, the spots during the reaction were filtered using P81 ion exchange filter paper (Whatman #3698-915), and the unbound phosphate was removed by washing with 0.1% phosphoric acid using a filter.

Series [2] addresses T1, ABL^wild (Homo sapiens, UniProt P00519). Put plainly: Hot Spot kinase assay, ABL wild type. Format: biochemical. As to conditions: for IC50: ATP 10 μM, 25° C., 120 minutes. As for the experimental part: (§1) Kinase analysis was conducted in a “Hot Spot” analysis platform manner. Specific kinase/substrate pairs and cofactors were prepared in a reaction buffer (20 mM HEPES (pH 7.5), 10 mM MgCl2, 1 mM EGTA, 0.02% Brij35, 0.02 mg/ml BSA, 0.1 mM Na3VO4, 2 mM DTT and 1% DMSO). 10 concentrations of compounds that were serially diluted 3 times in sequence from a concentration of 20 μM were added to the reaction mixture, and a mixture of ATP (10 μM, Sigma) and 33P ATP (Perkin Elmer) was added thereto after 20 minutes.

Series [3] has as its target T2, ABL^T315I (Homo sapiens, UniProt P00519, T315I). Description: Hot Spot kinase assay, ABL T315I. The settings on record: for IC50: ATP 10 μM, 25° C., 120 minutes. Format: biochemical. The method, then: as §1
The target of series [4] is T1, ABL^wild. The settings on record: positive controls, values in the references; cited from earlier work.
Series [5] has as its system K-562 (human leukemia cancer) cells. The settings on record: positive controls, values in the references; read-out: GI50, μm K562; cited from earlier work.
Series [6] deals with T2, ABL^T315I. The settings on record: positive controls, values in the references; cited from earlier work.
The subject of another series is patients. The settings on record: patients administered with ponatinib; cited from earlier work.
The test system of the next series is CML patients. The settings on record: primary therapeutic agent for CML patients; cited from earlier work.
The mark [7] stands for this setting: K562, 72 hours, read-out: GI50 against K-562 cancer cells.
The mark [8] stands for this setting: K562, 72 hours treatment, read-out: GI50, μm K562.

Each structure is given as a SMILES string. Like-named read-outs stand apart in the source and are kept apart here.

DDR1, sequence (Q08345 19-913): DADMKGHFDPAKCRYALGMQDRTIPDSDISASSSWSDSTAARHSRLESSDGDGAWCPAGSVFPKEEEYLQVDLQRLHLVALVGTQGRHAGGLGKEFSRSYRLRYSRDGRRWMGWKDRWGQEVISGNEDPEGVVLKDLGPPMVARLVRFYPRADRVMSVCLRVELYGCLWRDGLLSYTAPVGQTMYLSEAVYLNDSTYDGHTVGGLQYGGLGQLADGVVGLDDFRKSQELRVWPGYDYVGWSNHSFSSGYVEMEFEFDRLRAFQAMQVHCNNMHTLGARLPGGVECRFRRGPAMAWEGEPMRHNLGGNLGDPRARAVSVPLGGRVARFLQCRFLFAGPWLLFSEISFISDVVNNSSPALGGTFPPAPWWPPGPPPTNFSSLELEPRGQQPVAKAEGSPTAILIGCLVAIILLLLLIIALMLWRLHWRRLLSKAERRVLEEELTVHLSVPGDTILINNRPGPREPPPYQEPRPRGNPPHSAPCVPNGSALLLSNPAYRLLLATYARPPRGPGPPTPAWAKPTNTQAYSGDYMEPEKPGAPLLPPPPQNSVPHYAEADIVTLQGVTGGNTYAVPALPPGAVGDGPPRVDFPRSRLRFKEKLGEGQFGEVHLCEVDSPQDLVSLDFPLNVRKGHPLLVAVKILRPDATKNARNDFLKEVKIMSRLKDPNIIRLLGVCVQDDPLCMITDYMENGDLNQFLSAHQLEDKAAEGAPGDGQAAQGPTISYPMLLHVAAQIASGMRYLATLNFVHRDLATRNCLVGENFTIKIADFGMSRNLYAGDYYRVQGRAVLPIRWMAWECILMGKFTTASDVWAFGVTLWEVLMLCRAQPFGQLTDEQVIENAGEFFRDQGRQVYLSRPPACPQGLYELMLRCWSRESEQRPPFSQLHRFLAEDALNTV

For the compound `Nc1n[nH]c2cccc(C#Cc3cccc(NC(=O)c4ccc(N5CCOCC5)c(C(F)(F)F)c4)c3)c12` [Compound No. 8], in series [1], the “proliferation inhibitory effect on K-562 cancer cells (in words)” value is on record as “excellent anti-proliferative activity”, the “fold higher inhibitory effect than imatinib (K-562 GI50)” value stood at 13 fold and the “fold higher inhibitory effect than nilotinib (K-562 GI50)” value is on record as 4 fold. Also, the GI50 in series [1] (setting [7]) was 20 nM. At DDR1, the “inhibitory activity against DDR1 (in words)” value is reported as “excellent inhibitory activity” and half-maximal inhibition (IC50) required 14.7 nM. On ABL^wild [2], the “inhibitory activity against ABL (in words)” value is “excellent inhibitory activity” and the half-maximal inhibitory concentration (IC50) was 5.21 nM. Also, on ABL^T315I [3], the “inhibitory activity against the T315I point mutation of ABL (in words)” value was “exhibited inhibitory activity” and the IC50 is 183 nM.

Compound `CN1CCN(c2ccc(C(=O)Nc3cccc(C#Cc4cccc5[nH]nc(N)c45)c3)cc2C(F)(F)F)CC1` [Compound No. 7, N-(3-((3-Amino-1H-indazol-4-yl)ethynyl)phenyl)-4-(4-methylpiperazin-1-yl)-3-(trifluoromethyl)benzamide] displayed a half-maximal inhibitory concentration (IC50) at DDR1 of 31.9 nM.

For the compound `Cc1ccc(C(=O)Nc2cccc(C#Cc3cccc4[nH]nc(N)c34)c2)cc1C(F)(F)F` [Compound No. 6, N-(3-((3-Amino-1H-indazol-4-yl)ethynyl)phenyl)-4-methyl-3-(trifluoromethyl)benzamide], the concentration for 50% growth inhibition (GI50) in series [1] (setting [8]) was 1620 ± 1240 nM. The 50% inhibitory concentration (IC50) was 22.6 nM at DDR1, 104 nM against ABL^wild [2] and 2960 nM against ABL^T315I [3].

Take `Nc1n[nH]c2cccc(C#Cc3cccc(NC(=O)c4cc(N5CCOCC5)cc(C(F)(F)F)c4)c3)c12` [Compound No. 5, N-(3-((3-Amino-1H-indazol-4-yl)ethynyl)phenyl)-3-morpholino-5-(trifluoromethyl)benzamide]: the GI50 in series [1] (setting [8]) is 2140 ± 1150 nM. Also, the 50% inhibitory concentration (IC50) at DDR1 stood at 20.1 nM; at ABL^wild [2] it was 637 nM.

With `Cc1cn(-c2cc(C(=O)Nc3cccc(C#Cc4cccc5[nH]nc(N)c45)c3)cc(C(F)(F)F)c2)cn1` [Compound No. 3], the GI50 in series [1] (setting [8]) came out at 120 nM. Also, the IC50 stood at 13.1 nM against DDR1, 17.1 nM against ABL^wild [2] and 1290 nM against ABL^T315I [3].

Regarding `Nc1n[nH]c2cccc(-c3ccc(C(=O)N4CCN(C(=O)c5ccc(Cl)cc5Cl)CC4)cc3)c12` [(4-(4-(3-amino-1H-indazol-4-yl)benzoyl)piperazin-1-yl)(2,4-dichlorophenyl)methanone], the half-maximal inhibitory concentration (IC50) was 14 nM on ABL^wild [4] and 450 nM on ABL^T315I [6]. Besides, in series [5], the GI50 was 6500 nM.

In the case of `Nc1n[nH]c2cccc(C#Cc3cccc(C(=O)Nc4cccc(C(F)(F)F)c4)c3)c12` [Compound No. 9], in series [1] (setting [8]), the GI50 turned out to be 3750 ± 1220 nM. Moreover, the half-inhibitory concentration (IC50) is 18.4 nM against DDR1 and 210 nM on ABL^wild [2].

For the compound `Nc1n[nH]c2cccc(C#Cc3cccc(NC(=O)c4cccc(C(F)(F)F)c4)c3)c12` [Compound No. 1, N-(3-((3-Amino-1H-indazol-4-yl)ethynyl)phenyl)-3-(trifluoromethyl)benzamide], the GI50 in series [1] (setting [8]) is 1450 ± 1160 nM. Besides, the concentration for half-maximal inhibition (IC50) at DDR1 was 53.3 nM; on ABL^wild [2], 313 nM; on ABL^T315I [3] it was 2550 nM.

As for `CN1CCN(Cc2cc(NC(=O)c3cccc(C#Cc4cccc5[nH]nc(N)c45)c3)cc(C(F)(F)F)c2)CC1` [Compound No. 12], the GI50 in [1] (setting [8]) stood at 290 nM. Moreover, the IC50 on DDR1 turned out to be 29.1 nM; against ABL^wild [2], 60.5 nM; against ABL^T315I [3] it was 1150 nM.

As for `Cc1cn(-c2cc(NC(=O)c3ccc(C)c(Nc4nccc(-c5cccnc5)n4)c3)cc(C(F)(F)F)c2)cn1` [Nilotinib], the GI50 in series [5] is 80 ± 90 nM.

With `Cc1ccc(C(=O)Nc2ccc(CN3CCN(C)CC3)c(C(F)(F)F)c2)cc1C#Cc1cnc2cccnn12` [Ponatinib], the “share of patients with side effects such as thrombosis or narrowing of blood vessel walls” value in the series on patients is recorded as 20%.

As to `Nc1n[nH]c2cccc(C#Cc3cccc(C(=O)Nc4ccc(Cl)c(C(F)(F)F)c4)c3)c12` [Compound No. 14, 3-((3-Amino-1H-indazol-4-yl)ethynyl)-N-(4-chloro-3-(trifluoromethyl)phenyl)benzamide], in series [1] (setting [8]), the GI50 stood at 3330 ± 1180 nM. Besides, the half-inhibitory concentration (IC50) on DDR1 was determined as 20 nM; on ABL^wild [2], 255 nM.

As to `Nc1n[nH]c2cccc(C#Cc3cccc(NC(=O)c4cc(F)cc(C(F)(F)F)c4)c3)c12` [Compound No. 4, N-(3-((3-Amino-1H-indazol-4-yl)ethynyl)phenyl)-3-fluoro-5-(trifluoromethyl)benzamide], in series [1] (setting [8]), the GI50 was 2100 ± 1110 nM. The 50% inhibitory concentration (IC50) on DDR1 was 82.8 nM; against ABL^wild [2] it was 172 nM.

For `Nc1n[nH]c2cccc(C#Cc3cccc(C(=O)Nc4ccc(CN5CCOCC5)c(C(F)(F)F)c4)c3)c12` [Compound No. 16], in series [1] (setting [8]), the 50% growth inhibitory concentration (GI50) is 520 ± 1250 nM. The IC50 at DDR1 was 16.3 nM; against ABL^wild [2], 103 nM; at ABL^T315I [3], 1360 nM.

As for `CCN1CCN(Cc2ccc(NC(=O)c3cccc(C#Cc4cccc5[nH]nc(N)c45)c3)cc2C(F)(F)F)CC1` [Compound No. 15, 3-((3-Amino-1H-indazol-4-yl)ethynyl)-N-(4-((4-ethylpiperazin-1-yl)methyl)-3-(trifluoromethyl)phenyl)benzamide], in series [1], the “proliferation inhibitory effect on K-562 cancer cells (in words)” value is listed as “excellent anti-proliferative activity”, the “fold higher inhibitory effect than imatinib (K-562 GI50)” value came to 8.9 fold and the “fold higher inhibitory effect than nilotinib (K-562 GI50)” value was 2.7 fold. Also, the concentration for 50% growth inhibition (GI50) in series [1] (setting [7]) worked out at 30 nM. Further, the GI50 in series [1] (setting [8]) worked out at 30 nM. Moreover, at DDR1, the “inhibitory activity against DDR1 (in words)” value is “excellent inhibitory activity” and the 50% inhibitory concentration (IC50) was 3.7 nM. In addition, at ABL^wild [2], the “inhibitory activity against ABL (in words)” value is recorded as “excellent inhibitory activity” and the midpoint of inhibition, the IC50, lay at 0.625 nM. On ABL^T315I [3], the “inhibitory activity against the T315I point mutation of ABL (in words)” value was “excellent inhibitory activity” and the concentration for half-maximal inhibition (IC50) came out at 5.82 nM.

On to `Cc1cn(-c2cc(NC(=O)c3cccc(C#Cc4cccc5[nH]nc(N)c45)c3)cc(C(F)(F)F)c2)cn1` [Compound No. 11, 3-((3-Amino-1H-indazol-4-yl)ethynyl)-N-(3-(4-methyl-1H-imidazol-1-yl)-5-(trifluoromethyl)phenyl)benzamide], for which, in series [1] (setting [8]), the GI50 worked out at 140 nM. The IC50 against DDR1 stood at 21 nM; against ABL^wild [2], 15.4 nM; against ABL^T315I [3], 1060 nM.

Turning to `Nc1n[nH]c2cccc(C#Cc3cccc(C(=O)Nc4cc(C(F)(F)F)cc(C(F)(F)F)c4)c3)c12` [Compound No. 10, 3-((3-Amino-1H-indazol-4-yl)ethynyl)-N-(3,5-bis(trifluoromethyl)phenyl)benzamide], the GI50 in series [1] (setting [8]) worked out at 460 ± 1340 nM. Further, the IC50 against DDR1 came out at 33 nM; against ABL^wild [2], 186 nM.

Consider `Nc1n[nH]c2cccc(C#Cc3cccc(NC(=O)c4cc(C(F)(F)F)cc(C(F)(F)F)c4)c3)c12` [Compound No. 2, 4N-(3-((3-Amino-1H-indazol-4-yl)ethynyl)phenyl)-3,5-bis (trifluoromethyl)benzamide], for which the values for the IC50 against DDR1 and against ABL^wild [2] were 96.5 nM and 667 nM, respectively.

As to `Cc1ccc(NC(=O)c2ccc(CN3CCN(C)CC3)cc2)cc1Nc1nccc(-c2cccnc2)n1` [Imatinib], in series [5], the GI50 is 267 ± 30 nM. In addition, the “share of patients in whom effective” value with CML patients is reported as 67%.

Values taken from patent publication US11407745B2, “Indazole derivatives and pharmaceutical composition for preventing, alleviating or treating cancer containing the same” (KOREA INSTITUTE OF SCIENCE AND TECHNOLOGY, priority 2019, dated 2022).
